Measured values taken from patent US5912161A, “Enzymes for the production of 2-keto-L-gulonic acid” (priority 1996, dated 1999).

What was measured:
[1] = target: T1, Corynebacterium sp. 2,5-DKG reductase A mutant Q192R (arginine for glutamine at position 192) (Corynebacterium sp., UniProt P06632, Q192R); test: Kinetic characterization of purified mutant Q192R 2,5-DKG reductase A (NADPH oxidation at 340 nm); type: biochemical; conditions: 50 mM tris, pH 7.0, 0.2 mM NADPH, 25° C.
T1 construct: made in house; host or cells: Acetobacter cerinus
T1 sequence (P06632 whole entry Q192R): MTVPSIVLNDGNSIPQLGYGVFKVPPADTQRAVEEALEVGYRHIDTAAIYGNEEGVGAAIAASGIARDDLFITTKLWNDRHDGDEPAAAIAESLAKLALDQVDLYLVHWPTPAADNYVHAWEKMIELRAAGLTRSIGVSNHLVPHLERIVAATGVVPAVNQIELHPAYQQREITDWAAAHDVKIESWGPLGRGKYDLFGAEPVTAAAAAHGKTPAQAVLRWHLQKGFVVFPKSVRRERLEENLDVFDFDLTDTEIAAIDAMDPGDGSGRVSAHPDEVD
Protocol: (§1) The preparations of wild-type and mutant Q192R 2,5-DKG reductase A enzymes were characterized kinetically as to their ability to reduce the substrate 2,5-DKG to 2-KLG. Assays were done in 1 ml total volume of 50 mM tris, pH 7.0, containing 0.2 mM NADPH, a constant amount of enzyme ([…]) and amounts of substrate varying from 2 to 14 mM. The assays were done at 25° C., and the rate of substrate reduction was measured spectrophotometrically by measuring the loss of absorbance at 340 nm wavelength (which is indicative of the oxidation of the cofactor NADPH to NADP+).
(§2) The data were analyzed according to the well-known Michaelis equation to determine the kinetic parameters Vmax and Km using the Enzfit software package (Biosoft, Cambridge, UK) on a Epson desktop computer.

[2] = target: T2, Corynebacterium sp. (ATCC 31090) 2,5-DKG reductase A, wild type, SEQ ID NO:1 (Corynebacterium sp., UniProt P06632); test: Kinetic characterization of purified wild-type 2,5-DKG reductase A (NADPH oxidation at 340 nm); type: biochemical; conditions: wild-type enzyme, 50 mM tris, pH 7.0, 0.2 mM NADPH, 25° C.
T2 construct: made in house; host or cells: Acetobacter cerinus
T2 sequence (P06632 whole entry): as the sequence (P06632 whole entry Q192R) above, with R192Q counted along it
Protocol: as §1, §2

## O=C(O)C(=O)[C@@H](O)[C@H](O)C(=O)CO [2,5-DKG, 2,5-diketo-D-gluconic acid]
[1]
  specificity constant (kcat/Km): 335 M⁻¹ s⁻¹
[1]; substrate 2 to 14 mM
  Km: 21 mM
  Vmax for the 2,5-DKG substrate: 14.0 μmoles per minute per milligram of protein
[2]
  specificity constant (kcat/Km): 140 M⁻¹ s⁻¹
[2]; substrate 2 to 14 mM
  Vmax for the 2,5-DKG substrate: 7.8 μmoles per minute per milligram of protein
[2]; substrate 2 to 14 mM, read-out: Km or Michaelis constant
  Km: 28 mM
